The supplement of paper PMC6045584
± gives the standard deviation of the averaged measurements.

What was measured:
[1] = compound: CC(=O)NCC(=O)N1[C@@H]2CC[C@H]1c1ccc(Nc3ncc(C(F)(F)F)c(NC4CCC4)n3)cc12; test: surviving fraction relative to DMSO-only wells; higher = less growth inhibition; details: exposure time: 5 days
How it was run: (§1)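 Tumour cell lines were seeded in log phase at 250–500 cells per well into 384-well plates. Starting 24 hours later, inhibitors were present continuously for five days at 0.5, 1, 5, 10, 50, 100, 500 and 1000 nM. Surviving fraction, from CellTiter-Glo luminescence, is normalised to the median of DMSO-only wells. Three screens per line were required, with replicate Pearson r >0.7 and median Z' >0.3 for a line to be kept.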

PACLITAXEL [2] = compound: T1, CC(=O)O[C@H]1C(=O)[C@@]2(C)[C@H]([C@H](OC(=O)c3ccccc3)[C@]3(O)C[C@H](OC(=O)[C@H](O)[C@@H](NC(=O)c4ccccc4)c4ccccc4)C(C)=C1C3(C)C)[C@]1(OC(C)=O)CO[C@@H]1C[C@@H]2O [PACLITAXEL]; test: as above; details: exposure time: 5 days
How it was run: as §1

[3] = compound: CC(=O)c1c(C)c2cnc(Nc3ccc(N4CCNCC4)cn3)nc2n(C2CCCC2)c1=O; test: as above; details: exposure time: 5 days
How it was run: as §1

CAMPTOTHECIN [4] = compound: T2, CC[C@@]1(O)C(=O)OCc2c1cc1n(c2=O)Cc2cc3ccccc3nc2-1 [CAMPTOTHECIN]; test: as above; details: exposure time: 5 days
How it was run: as §1

YM155 [5] = compound: T3, COCC[n+]1c2c(n(Cc3cnccn3)c1C)C(=O)c1ccccc1C2=O [YM155]; test: as above; details: exposure time: 5 days
How it was run: as §1

GEFITINIB [6] = compound: T4, COc1cc2ncnc(Nc3ccc(F)c(Cl)c3)c2cc1OCCCN1CCOCC1 [GEFITINIB]; test: as above; details: exposure time: 5 days
How it was run: as §1

OSI-906 [7] = compound: T5, C[C@]1(O)C[C@@H](c2nc(-c3ccc4ccc(-c5ccccc5)nc4c3)c3c(N)nccn32)C1 [OSI-906]; test: as above; details: exposure time: 5 days
How it was run: as §1

CELECOXIB [8] = compound: T6, Cc1ccc(-c2cc(C(F)(F)F)nn2-c2ccc(S(N)(=O)=O)cc2)cc1 [CELECOXIB]; test: as above; details: exposure time: 5 days
How it was run: as §1

CARBOPLATIN = compound: O=C(O)C1(C(=O)O)CCC1.[NH2-].[NH2-].[Pt+2] [CARBOPLATIN]; test: as above; details: exposure time: 5 days
How it was run: as §1

[9] = compound: CC(=O)NCC(=O)N1[C@@H]2CC[C@H]1c1ccc(Nc3ncc(C(F)(F)F)c(NC4CCC4)n3)cc12; test: area under dose-response curve of surviving fraction (unscaled, Aref=0) (surviving fraction x log10(nM)); higher = more resistant; details: exposure time: 5 days; dose range 0.5-1000 nM
How it was run: (§2)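 Tumour cell lines in 384-well plates were exposed to eight inhibitor concentrations, from 0.5 to 1000 nM, for five days, and viability was read by CellTiter-Glo luminescence in three screens per line. Signals were normalised to DMSO-only wells, and 3-parameter logistic regression in the drc R package fitted dose-response survival curves to the surviving fractions. Area under the curve is given as the unscaled activity area. That area is taken over log10 dose with Aref = 0.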

PACLITAXEL [10] = compound: T1, PACLITAXEL; test: as above; details: exposure time: 5 days; dose range 0.5-1000 nM
How it was run: as §2

[11] = compound: CC(=O)c1c(C)c2cnc(Nc3ccc(N4CCNCC4)cn3)nc2n(C2CCCC2)c1=O; test: as above; details: exposure time: 5 days; dose range 0.5-1000 nM
How it was run: as §2

CAMPTOTHECIN [12] = compound: T2, CAMPTOTHECIN; test: as above; details: exposure time: 5 days; dose range 0.5-1000 nM
How it was run: as §2

YM155 [13] = compound: T3, YM155; test: as above; details: exposure time: 5 days; dose range 0.5-1000 nM
How it was run: as §2

GEFITINIB [14] = compound: T4, GEFITINIB; test: as above; details: exposure time: 5 days; dose range 0.5-1000 nM
How it was run: as §2

OSI-906 [15] = compound: T5, OSI-906; test: as above; details: exposure time: 5 days; dose range 0.5-1000 nM
How it was run: as §2

CELECOXIB [16] = compound: T6, CELECOXIB; test: as above; details: exposure time: 5 days; dose range 0.5-1000 nM
How it was run: as §2

CHLA90 AUTONOMIC GANGLIA
surviving fraction ([1]; 0.5 nM): 0.951 ± 0.025
surviving fraction ([1]; 1 nM): 0.983 ± 0.046
surviving fraction ([1]; 5 nM): 0.96 ± 0.028
surviving fraction ([1]; 10 nM): 0.91 ± 0.039
surviving fraction ([1]; 50 nM): 0.754 ± 0.032
surviving fraction ([1]; 100 nM): 0.5867 ± 0.0055
surviving fraction ([1]; 500 nM): 0.436 ± 0.045
surviving fraction ([1]; 1000 nM): 0.301 ± 0.037
surviving fraction (PACLITAXEL [2]; 0.5 nM): 0.957 ± 0.032
surviving fraction (PACLITAXEL [2]; 1 nM): 0.948 ± 0.056
surviving fraction (PACLITAXEL [2]; 5 nM): 0.507 ± 0.022
surviving fraction (PACLITAXEL [2]; 10 nM): 0.231 ± 0.026
surviving fraction (PACLITAXEL [2]; 50 nM): 0.0937 ± 0.01
surviving fraction (PACLITAXEL [2]; 100 nM): 0.076 ± 0.016
surviving fraction (PACLITAXEL [2]; 500 nM): 0.0513 ± 0.0046
surviving fraction (PACLITAXEL [2]; 1000 nM): 0.0577 ± 0.009
surviving fraction ([3]; 0.5 nM): 1.04 ± 0.067
surviving fraction ([3]; 1 nM): 1.06 ± 0.02
surviving fraction ([3]; 5 nM): 1.04 ± 0.075
surviving fraction ([3]; 10 nM): 1.01 ± 0.055
surviving fraction ([3]; 50 nM): 0.934 ± 0.013
surviving fraction ([3]; 100 nM): 0.95 ± 0.035
surviving fraction ([3]; 500 nM): 0.839 ± 0.053
surviving fraction ([3]; 1000 nM): 0.687 ± 0.015
surviving fraction (CAMPTOTHECIN [4]; 0.5 nM): 0.318 ± 0.011
surviving fraction (CAMPTOTHECIN [4]; 1 nM): 0.835 ± 0.041
surviving fraction (CAMPTOTHECIN [4]; 5 nM): 0.584 ± 0.031
surviving fraction (CAMPTOTHECIN [4]; 10 nM): 0.481 ± 0.05
surviving fraction (CAMPTOTHECIN [4]; 50 nM): 0.173 ± 0.0053
surviving fraction (CAMPTOTHECIN [4]; 100 nM): 0.268 ± 0.0099
surviving fraction (CAMPTOTHECIN [4]; 500 nM): 0.133 ± 0.033
surviving fraction (CAMPTOTHECIN [4]; 1000 nM): 0.137 ± 0.027
surviving fraction (YM155 [5]; 0.5 nM): 0.807 ± 0.017
surviving fraction (YM155 [5]; 1 nM): 0.926 ± 0.075
surviving fraction (YM155 [5]; 5 nM): 0.734 ± 0.057
surviving fraction (YM155 [5]; 10 nM): 0.44 ± 0.057
surviving fraction (YM155 [5]; 50 nM): 0.106 ± 0.028
surviving fraction (YM155 [5]; 100 nM): 0.0633 ± 0.013
surviving fraction (YM155 [5]; 500 nM): 0.025 ± 0.0027
surviving fraction (YM155 [5]; 1000 nM): 0.0273 ± 0.0015
surviving fraction (GEFITINIB [6]; 0.5 nM): 0.939 ± 0.022
surviving fraction (GEFITINIB [6]; 1 nM): 0.905 ± 0.089
surviving fraction (GEFITINIB [6]; 5 nM): 0.873 ± 0.052
surviving fraction (GEFITINIB [6]; 10 nM): 0.848 ± 0.056
surviving fraction (GEFITINIB [6]; 50 nM): 0.902 ± 0.069
surviving fraction (GEFITINIB [6]; 100 nM): 0.876 ± 0.041
surviving fraction (GEFITINIB [6]; 500 nM): 0.881 ± 0.044
surviving fraction (GEFITINIB [6]; 1000 nM): 0.801 ± 0.066
surviving fraction (OSI-906 [7]; 0.5 nM): 0.883 ± 0.046
surviving fraction (OSI-906 [7]; 1 nM): 0.904 ± 0.019
surviving fraction (OSI-906 [7]; 5 nM): 0.862 ± 0.036
surviving fraction (OSI-906 [7]; 10 nM): 0.828 ± 0.08
surviving fraction (OSI-906 [7]; 50 nM): 0.832 ± 0.059
surviving fraction (OSI-906 [7]; 100 nM): 0.792 ± 0.084
surviving fraction (OSI-906 [7]; 500 nM): 0.78 ± 0.056
surviving fraction (OSI-906 [7]; 1000 nM): 0.725 ± 0.082
surviving fraction (CELECOXIB [8]; 0.5 nM): 1.01 ± 0.048
surviving fraction (CELECOXIB [8]; 1 nM): 0.999 ± 0.058
surviving fraction (CELECOXIB [8]; 5 nM): 0.99 ± 0.054
surviving fraction (CELECOXIB [8]; 10 nM): 1.03 ± 0.12
surviving fraction (CELECOXIB [8]; 50 nM): 1.03 ± 0.088
surviving fraction (CELECOXIB [8]; 100 nM): 1 ± 0.15
surviving fraction (CELECOXIB [8]; 500 nM): 0.999 ± 0.058
surviving fraction (CELECOXIB [8]; 1000 nM): 1.08 ± 0.026
surviving fraction (CARBOPLATIN; 0.5 nM): 0.925 ± 0.057
surviving fraction (CARBOPLATIN; 1 nM): 0.943 ± 0.072
surviving fraction (CARBOPLATIN; 5 nM): 0.923 ± 0.058
surviving fraction (CARBOPLATIN; 10 nM): 0.917 ± 0.045
surviving fraction (CARBOPLATIN; 50 nM): 1.14 ± 0.11
surviving fraction (CARBOPLATIN; 100 nM): 1.11 ± 0.098
surviving fraction (CARBOPLATIN; 500 nM): 1.09 ± 0.097
surviving fraction (CARBOPLATIN; 1000 nM): 1.13 ± 0.14
area under dose-response curve [9]: 2.51
area under dose-response curve (PACLITAXEL [10]): 1.13
area under dose-response curve [11]: 3.14
area under dose-response curve (CAMPTOTHECIN [12]): 1.21
area under dose-response curve (YM155 [13]): 1.31
area under dose-response curve (GEFITINIB [14]): 2.9
area under dose-response curve (OSI-906 [15]): 2.73
area under dose-response curve (CELECOXIB [16]): 3.34
